Numbers after ± are expanded uncertainties.
Assays:
[1] = refractive index (Na D-line) (dimensionless); xn = mol fraction of the nth substance listed; settings: 101 kPa, Liquid, Standard Abbe refractometry
[2] = xn = mol fraction of the nth substance listed; settings: 101 kPa, Liquid; for viscosity: Capillary tube (Ostwald / Ubbelohde) method

CCCC(C)O (centres undefined) [pentan-2-ol] + CCC(C)=O
Settings | mass density, 298.15 K [kg/m3] | mass density, 308.15 K [kg/m3] | mass density, 318.15 K [kg/m3] | refractive index, 298.15 K | refractive index, 308.15 K | refractive index, 318.15 K | viscosity, 298.15 K [mPa·s] | viscosity, 308.15 K [mPa·s] | viscosity, 318.15 K [mPa·s]
[1], x2 = 0 | – | – | – | 1.4032 ± 0.0009 | 1.399 ± 0.0009 | 1.395 ± 0.0009 | – | – | –
[1], x2 = 0.0824 | – | – | – | 1.4014 ± 0.0009 | 1.3974 ± 0.0009 | 1.3937 ± 0.0009 | – | – | –
[1], x2 = 0.1612 | – | – | – | 1.3998 ± 0.0009 | 1.3959 ± 0.0009 | 1.3923 ± 0.0009 | – | – | –
[1], x2 = 0.2401 | – | – | – | 1.398 ± 0.0009 | 1.3941 ± 0.0009 | 1.3906 ± 0.0009 | – | – | –
[1], x2 = 0.3519 | – | – | – | 1.3952 ± 0.0009 | 1.3914 ± 0.0009 | 1.3877 ± 0.0009 | – | – | –
[1], x2 = 0.4396 | – | – | – | 1.3929 ± 0.0009 | 1.389 ± 0.0009 | 1.3852 ± 0.0009 | – | – | –
[1], x2 = 0.5608 | – | – | – | 1.3895 ± 0.0009 | 1.3854 ± 0.0009 | 1.3813 ± 0.0009 | – | – | –
[1], x2 = 0.6494 | – | – | – | 1.3868 ± 0.0009 | 1.3826 ± 0.0009 | 1.3782 ± 0.0009 | – | – | –
[1], x2 = 0.7403 | – | – | – | 1.384 ± 0.0009 | 1.3796 ± 0.0009 | 1.375 ± 0.0009 | – | – | –
[1], x2 = 0.8491 | – | – | – | 1.3803 ± 0.0009 | 1.3757 ± 0.0009 | 1.3711 ± 0.0009 | – | – | –
[1], x2 = 0.9384 | – | – | – | 1.3772 ± 0.0009 | 1.3724 ± 0.0009 | 1.3679 ± 0.0009 | – | – | –
[2], x2 = 0 | 805.3 ± 0.56 | 797 ± 0.57 | 788.37 ± 0.58 | – | – | – | 3.478 ± 0.026 | 2.361 ± 0.018 | 1.772 ± 0.014
[2], x2 = 0.0824 | 804 ± 0.56 | 795.54 ± 0.57 | 786.83 ± 0.58 | – | – | – | 2.664 ± 0.02 | 1.778 ± 0.014 | 1.344 ± 0.011
[2], x2 = 0.1612 | 802.99 ± 0.56 | 794.34 ± 0.57 | 785.5 ± 0.58 | – | – | – | 2.066 ± 0.016 | 1.381 ± 0.011 | 1.094 ± 0.009
[2], x2 = 0.2401 | 802.04 ± 0.56 | 793.29 ± 0.57 | 784.32 ± 0.58 | – | – | – | 1.69 ± 0.013 | 1.105 ± 0.009 | 0.897 ± 0.008
[2], x2 = 0.3519 | 800.97 ± 0.56 | 791.97 ± 0.57 | 782.76 ± 0.59 | – | – | – | 1.347 ± 0.011 | 0.865 ± 0.008 | 0.721 ± 0.007
[2], x2 = 0.4396 | 800.31 ± 0.56 | 791.07 ± 0.57 | 781.66 ± 0.59 | – | – | – | 1.131 ± 0.009 | 0.731 ± 0.007 | 0.642 ± 0.006
[2], x2 = 0.5608 | 799.65 ± 0.56 | 790.15 ± 0.58 | 780.47 ± 0.59 | – | – | – | 0.886 ± 0.008 | 0.587 ± 0.006 | 0.514 ± 0.006
[2], x2 = 0.6494 | 799.34 ± 0.56 | 789.63 ± 0.58 | 779.91 ± 0.59 | – | – | – | 0.743 ± 0.007 | 0.518 ± 0.006 | 0.457 ± 0.006
[2], x2 = 0.7403 | 799.2 ± 0.56 | 789.23 ± 0.58 | 779.15 ± 0.59 | – | – | – | 0.623 ± 0.006 | 0.462 ± 0.006 | 0.407 ± 0.005
[2], x2 = 0.8491 | 799.26 ± 0.56 | 789.02 ± 0.58 | 778.67 ± 0.59 | – | – | – | 0.505 ± 0.006 | 0.406 ± 0.005 | 0.366 ± 0.005
[2], x2 = 0.9384 | 799.49 ± 0.56 | 789.09 ± 0.58 | 778.55 ± 0.59 | – | – | – | 0.436 ± 0.005 | 0.371 ± 0.005 | 0.338 ± 0.005

Reference: the NIST ThermoML archive (doi:10.1021/je901067c)
